Legend:
Snail [1] = test: Western blot of Snail protein; format: cell-based, human; settings: for Snail expression levels: BAPTA or calmidazolium for 1 hour; for Snail expression: H2O2 or NAC for 6 hours; for Snail: BMS303141 24 hours, NDI-091143 24 hours, SB-204990 2 hours
Experimental: (§1) Cells were harvested, washed with PBS, and lysed on ice with RIPA buffer containing protease and phophatase inhibitor cocktail (GenDEPOT). After 15 minutes of incubation, the cell lysates were centrifuged at 15,000 rpm at 4° C. for 10 minutes. Protein concentration was measured by Bradford assay (Bio-rad, 500-0006). Equal amounts of total protein were placed on an SDS gel electrophoresis and transferred to a PVDF membrane (Bio-rad). The membrane was blocked with 5% skim milk for 1 hour at room temperature and incubated overnight at 4° C. with primary antibody in a buffer containing 0.1% Tween-20. Subsequently, the membrane was washed three times with Tween-PBS buffer and incubated for 1 hour at room temperature using a secondary antibody diluted in blocking buffer containing 0.1% Tween-20. Subsequently, the membrane was washed three times for 10 minutes each using Tween-TBS. Densitometry of Western blots was measured using ImageJ software.
[…] For autophagy activation, cells were'treated with 2 μM rapamycin (Selleckchem, S1039) for 5 hours. Modulation of intracellular ROS was performed with N-acetyl-cysteine (10 mM) (Sigma, A7250), hydrogen peroxide solution (100 μM to 200 μM) (Sigma, 216763), or CDDO-ME NRF2 activator (50 nM, 100 nM) (Sellckchem, S8078) for 4 to 24 hours. Intercellular calcium signal control was performed for 1 hour using BAPTA-AM (20 μM) (Sigma, A1076) or Calmidazolium Chloride (2.5 μM) (Sigma, C3930). […] For TFEB protein phosphorylation, tacrolimus (1 μM) (Selleckchem, S5003) was treated for 1 hour. […] During siRNA treatment, each siRNA was treated to a concentration of 40 to 50 nM and treated together with Lipofectamine RNAiMax (Thermo Fisher Scientific, 13778150) for transformation, and were used for experiments 48 to 72 hours later. For cDNA treatment, each cDNA was treated to a concentration of 1 to 2 μg in a 6-well plate and treated with Lipofectamine 2000 (Thermo Fisher Scientific, 11668019) for transformation, and were used for experiments 24 hours later.

phospho-AMPK T172 = test: Western blot of phospho-AMPK T172; format: cell-based, human; settings: HBEC-KL cell line; for AMPK phosphorylation: BAPTA or calmidazolium for 1 hour; for AMPK phosphorylation at T172: H2O2 or NAC for 6 hours
Experimental: as §1
For inhibition of autophagy, cells were treated with 50 μM chloroquine (Sigma, C6628) for 12 to 24 hours. For autophagy activation, cells were'treated with 2 μM rapamycin (Selleckchem, S1039) for 5 hours. Modulation of intracellular ROS was performed with N-acetyl-cysteine (10 mM) (Sigma, A7250), hydrogen peroxide solution (100 μM to 200 μM) (Sigma, 216763), or CDDO-ME NRF2 activator (50 nM, 100 nM) (Sellckchem, S8078) for 4 to 24 hours. Intercellular calcium signal control was performed for 1 hour using BAPTA-AM (20 μM) (Sigma, A1076) or Calmidazolium Chloride (2.5 μM) (Sigma, C3930). C646 (25 μM) (Sigma, SML0002), curcumin (10 μM) (Selleckchem, S1848) CBP/p300 inhibitor or vorinostat ([…]) (Selleckchem, S1047) HDAC inhibitor was treated for 24 hours to modulate snail protein acetylation. and CHIR99021 GSK3b inhibitor (3 μM) (Sigma, SML1046) was treated for 24 hours to control Snail protein phosphorylation. For TFEB protein phosphorylation, tacrolimus (1 μM) (Selleckchem, S5003) was treated for 1 hour. […] During siRNA treatment, each siRNA was treated to a concentration of 40 to 50 nM and treated together with Lipofectamine RNAiMax (Thermo Fisher Scientific, 13778150) for transformation, and were used for experiments 48 to 72 hours later. For cDNA treatment, each cDNA was treated to a concentration of 1 to 2 μg in a 6-well plate and treated with Lipofectamine 2000 (Thermo Fisher Scientific, 11668019) for transformation, and were used for experiments 24 hours later.

Snail [2] = test: Immunoprecipitation-immunoblot of phosphorylated/acetylated or K48 polyubiquitinated Snail in A549 cells; format: cell-based, human; settings: 25 uM C646 or 3 uM SAHA
Experimental: FIG. 9K illustrates the immunoprecipitation-immunoblot result of phosphorylated/acetylated or K48 polyubiquitinated Snail assay after transfection of wild-type Snail (pFLAG-Snail WT) or acetylation-defective Snail mutant (pFLAG-SnailK146R) into A549 cells and/or treatment with 25 uM C646.
FIG. 9L illustrates the immunoprecipitation-immunoblot results of the polyubiquitinated Snail assay after transfection of HA-ubiquitin and wild-type Snail (pFLAG-Snail WT) or acetylation-defective Snail mutant (pFLAG-SnailK146R) into A549 cells and/or treatment with 25 uM C646 for 2 hours (left) and/or treatment of 3 uM SAHA for 5 hours (right).
(§2) For immunoprecipitation, equal amounts of lysate and Co-IP buffer (40 mM HEPES, pH 7.4, 120 mM NaCl, 2 mM EDTA, 0.3% CHAPS (Sigma, 10810118001), 10 mM pyrophosphate (Sigma, 221368), 10 mM glycerophosphate (Sigma, G9422), 50 mM NaF, phosphatase and protease inhibitor mixture) were mixed. Cell lysates (1 μg protein) were incubated overnight at 4° C. on anti-FLAG® M2 Affinity Gel (Sigma, A2220) or anti-acetyl-lysine antibody coated agarose (ImmuneChem Pharmaceuticals, ICP0388). The immunoprecipitate was then washed three times in IP buffer, and the immunoprecipitated complex was dissolved and separated by boiling in IP buffer for 5 minutes.

TFEB = test: Western blot / immunoprecipitation-immunoblot of TFEB (acetylated, phosphorylated, total); format: cell-based, human; settings: HBEC-KL; 1 uM FK506, 1 hour
Experimental: FIG. 11J illustrates a diagram of immunoblot results of the […] a control (left), and the immunoprecipitation-immunoblot result of TFEB acetylated HBEC-KL cells under the same conditions (right) is also shown,
as §1, §2

TFEB (CLEAR network) = test: CLEAR motif-driven luciferase reporter assay; format: cell-based, human; settings: HBEC-KL; 1 uM FK506, 1 hour
Experimental: To compare the TFEB reporter activity with other cell lines (HBEC30KT, HBEC-K, and HBEC-KL), the pGL4.70 5× CLEAR Rluc and pSt4.14 Fluc vectors were transiently co-transfected and normalized luciferase activity was measured in Dual-Measured by Luciferase® Reporter Assay System (Promega, E1910),

HBEC-KL cell line = test: Matrigel invasion assay, HBEC-KL cell line; format: cell-based, human; settings: HBEC-KL; 50 uM BMS303141 24 hours, 1 um NDI-091143 24 hours, 20 uM SB-204990 2 hours
Experimental: For the 2D invasion assay, the inserts were pre-coated with 300 μg/ml Matrigel (Coming, 354234). After staining with […] dye (Bio-Rad, 1450013), 1×10^5 live cells per 8-um-pore cell-culture insert (Costar. 3422) were seeded in 0.5% ACL medium. 10% ACL medium was added to the outside of the insert. In the case of lung cancer and pancreatic cancer cell lines, after inoculation in 1% RPMI medium, 20% RPMI medium was added to the outside of the insert. Plates were incubated for 24 hours at 37° C. After incubation, the insert was fixed with 3.7% PFA, washed, stained with 0.4% crystal violet, and the upper membrane was washed and dried.

LC3 = test: Autophagic flux (LC3 Western blot, mRFP-GFP-LC3 lysosomal delivery assay); format: cell-based, human; settings: HBEC-KL cell line; NAC or 50 uM STO-609, 24 hours
Experimental: as §1, with “Representative GFP-LC3, RFP-LC3 and overlapping images are shown. In addition, red puncta (mRFP+/GFP−) and yellow puncta (mRFP+/GFP+) per cell were quantified and graphed (n=15 cells/treatment). Cells” for “Cells”

A549-luc cells = test: A549-luc tail vein injection metastasis model; format: in vivo; settings: nude mice; 100 mg/kg, qd p.o 20 consecutive days
Experimental: FIG. 13E illustrates role of STO-609 on cancer metastasis in an A549-luc tail vein injection model. After intravenous injection of A549-luc cells into nude mice, vehicle or STO-609 (25 mg/kg and 100 mg/kg qd) was injected for 28 days starting one day after the injection. A picture taken of a bioluminescent image when 4 weeks have elapsed after injection is shown (above). Analysis results of the total metastasis burden by photonic flux are shown (below). FIG. 13H illustrates the role of BMS303141 on cancer metastasis in an A549-luc tail vein injection model. A549-luc cells were intravenously injected into nude mice, and then vehicle or BMS303141 (100 mg/kg q.d.) was injected for 20 days starting one day after the injection. A bioluminescence image when 3 weeks have elapsed after injection is shown. 7- to 9-week-old BALB/c-nu Sic mice were obtained from SLC, Inc. (Shizuoka, Japan) and used, A549-luc cells (#JCRB1414) or SNAI1 shRNA-mediated knockdown A549-luc cells were injected at 3-4.5×10^6 cells through the tail vein of mice. After 3 to 4 weeks, metastasis was monitored by bioluminescence imaging analysis. More specifically, after injecting D-luciferin (75 mg/kg) (PerkinElmer, 122799) into the abdominal cavity of the mouse, images were obtained using an IVIS imaging system (IVIS 200, PerkinElmer, Waltham, MA, USA) in the supine position. Lung tissue was obtained for histopathological analysis. Images were analyzed using commercially available software (ImageScope; Aperio Technologies). In the STO-609 efficacy test, STO-609 (25 mg, 100 mg/kg/day) was orally administered to mice on the day of injection. In the BMS303141 efficacy test, BMS303141 (100 mg/kg/day) was orally administered to mice on the day of injection.

[3] = HBEC-KL cell line, 20 nM bortezomib

SMILES: CC(C)C[C@H](NC(=O)[C@H](Cc1ccccc1)NC(=O)c1cnccn1)B(O)O [bortezomib]
- reduction of Snail by STO-609, with bortezomib also treated (Snail [1]; [3]): restored
- reduction of Snail by chloroquine (CQ), with bortezomib also treated (Snail [1]; [3]): restored
- Snail reduction caused by the ACLY inhibitor, with Bortezomib (Snail [1]; HBEC-KL, 20 nM bortezomib for 3 hours): restored

SMILES: O=C(O)CN(CC(=O)O)c1ccccc1OCCOc1ccccc1N(CC(=O)O)CC(=O)O [BAPTA]
- AMPK phosphorylation (phospho-AMPK T172): reduced
- Snail expression levels (Snail [1]; HBEC-KL cell line): reduced

SMILES: CC1=NN(c2ccc(C(=O)O)cc2)C(=O)/C1=C\c1ccc(-c2cc(C)c(C)cc2[N+](=O)[O-])o1 [C646]
- K48 polyubiquitination of wild-type Snail (Snail [2]; pFLAG-Snail WT): increased
- phosphorylation of wild-type Snail (Snail [2]; pFLAG-Snail WT): increased
- phosphorylation and acetylation of K146R Snail (Snail [2]; pFLAG-SnailK146R): did not affect

SMILES: Clc1ccc(C(c2ccc(Cl)cc2)n2cc[n+](CC(OCc3ccc(Cl)cc3Cl)c3ccc(Cl)cc3Cl)c2)cc1 (stereo not shown) [calmidazolium]
- AMPK phosphorylation (phospho-AMPK T172): reduced
- Snail expression levels (Snail [1]; HBEC-KL cell line): reduced

SMILES: OO [H2O2, hydrogen peroxide]
- AMPK phosphorylation at T172 (phospho-AMPK T172): increased
- Snail expression (Snail [1]; HBEC-KL cell line): increased

SMILES: C=CC[C@@H]1/C=C(\C)C[C@H](C)C[C@H](OC)[C@H]2O[C@@](O)(C(=O)C(=O)N3CCCC[C@H]3C(=O)O[C@H](/C(C)=C/[C@@H]3CC[C@@H](O)[C@H](OC)C3)[C@H](C)[C@@H](O)CC1=O)[C@H](C)C[C@@H]2OC [FK506, tacrolimus]
- phospho-TFEB (TFEB): increasing
- CLEAR activity (TFEB (CLEAR network)): decreased

SMILES: O=C(O)C[C@@]1(O)C[C@@H](CCCCCCc2ccc(Cl)cc2Cl)OC1=O [SB-204990]
- Matrigel invasion (HBEC-KL cell line): reduced
- Snail (Snail [1]; HBEC-KL): reduced

SMILES: COC(=O)c1cc(Cl)c(O)c(S(=O)(=O)Nc2cc(-c3ccccc3)c(F)cc2F)c1 [NDI-091143]
- Matrigel invasion (HBEC-KL cell line): reduced
- Snail (Snail [1]; HBEC-KL): reduced

SMILES: CC(=O)N[C@@H](CS)C(=O)O [NAC, N-acetyl-cysteine]
- autophagic flux (LC3): decreased
- AMPK phosphorylation at T172 (phospho-AMPK T172): decreased
- Snail expression (Snail [1]; HBEC-KL cell line): decreased

SMILES: COc1ccc(-c2ccccc2)cc1NS(=O)(=O)c1cc(Cl)cc(Cl)c1O [BMS303141]
- total degree of metastasis (A549-luc cells): reduced
- Matrigel invasion (HBEC-KL cell line): reduced
- Snail (Snail [1]; HBEC-KL): reduced

SMILES: COC(=O)[C@]12CCC(C)(C)C[C@H]1[C@H]1C(=O)C=C3[C@@]4(C)C=C(C#N)C(=O)C(C)(C)[C@@H]4CC[C@@]3(C)[C@]1(C)CC2 [CDDO-ME]
- level of phospho-AMPK T172 (phospho-AMPK T172; CDDO-ME for 24 hours): reduced

Source: patent publication US20240041842A1, “PHARMACEUTICAL COMPOSITION FOR INHIBITING CANCER METASTASIS” (INDUSTRY-ACADEMIC COOPERATION FOUNDATION, YONSEI UNIVERSITY, priority 2021, published 2024)
